Data reported in patent US20090209525A1, “ENABLING METHODS TO IDENTIFY ALLOSTERIC MODULATORS OF RECEPTOR ACTIVITY” (priority 2006, published 2009).
Changes are numbered by the printed parent chain. Like-named read-outs stand apart in the source and are kept apart here.

Key:
rat M1 Y106A receptor [1] = target: T1, rat M1 Y106A receptor (Rattus norvegicus, UniProt P08482, Y106A); assay: ^3H-NMS radioligand binding, Y106A; conditions: for Shift: Ki Y106A divided by Ki wild-type
T1 construct: expressed in transfected cells
T1 sequence (P08482 1-460 Y106A): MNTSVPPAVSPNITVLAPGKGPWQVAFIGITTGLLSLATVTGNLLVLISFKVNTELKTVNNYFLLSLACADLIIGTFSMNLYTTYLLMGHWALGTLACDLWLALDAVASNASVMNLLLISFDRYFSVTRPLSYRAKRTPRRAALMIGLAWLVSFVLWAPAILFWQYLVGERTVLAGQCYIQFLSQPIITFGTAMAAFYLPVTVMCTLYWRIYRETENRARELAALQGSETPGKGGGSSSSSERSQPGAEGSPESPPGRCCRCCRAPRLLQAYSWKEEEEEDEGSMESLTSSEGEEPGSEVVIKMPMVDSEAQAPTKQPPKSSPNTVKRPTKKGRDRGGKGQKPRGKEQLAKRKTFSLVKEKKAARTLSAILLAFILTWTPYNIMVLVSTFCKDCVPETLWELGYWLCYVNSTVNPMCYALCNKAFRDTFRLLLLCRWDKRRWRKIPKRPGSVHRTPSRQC
Procedure: Briefly, cell homogenates are prepared from cells transiently or stably expressing wild type or mutant receptors. For transiently transfected cells, HEK cells are transfected with receptor of interest and cells harvested 48 hours post transfection. Cells expressing the receptor, stably or transiently, are harvested using phosphate buffered saline containing 5 mM EDTA, cells centrifuged at low speed and pellet re-suspended in binding buffer. Cell suspension is polytroned and centrifuged at 15,000×g. The pellet is resuspended in binding buffer and centrifugation repeated two more times. The washed cell homogenates are used for the competition binding assays. Competition binding assays are carried out in the presence of fixed amount of cell homogenate, fixed concentration of radioactively labeled orthosteric or allosteric ligand and varying concentrations of the cal under study using appropriate buffer. Incubations are carried out at room temperature for 2 hours. Incubations are terminated by filtration onto GF/B filters using Packard cell harvester followed by 3 washes with ice-cold buffer. Radioactivity retained on the filters is quantitated using Packard Top Count using Microscint 20 scintillation fluid. […] The membranes prepared above are incubated with a labeled ligand in 25 mM sodium phosphate, 5 mM magnesium chloride, 0.01% BSA two hours at room temperature. The binding reaction is stopped by rapid filtration onto GF/B filters. […] The pKd values (pKd=−log Kd) of the labeled ligand are calculated.
Radioligand binding assays were carried out in 25 mM sodium phosphate, 5 mM magnesium chloride, 0.01% BSA. Incubations were for two hours at room temperature, and reactions were stopped by rapid filtration onto GF/B filters.

[2] = target: T2, rat M1 wild-type receptors (Rattus norvegicus, UniProt P08482); assay: R-SAT functional assay, wild-type receptor; type: cell-based; conditions: for EC50: read-out: pEC50 (converted); for Shift: EC50 divided by EC50 for wild-type (reference)
T2 construct: expressed in transfected cells
T2 sequence (P08482 1-460): T1 sequence (P08482 1-460 Y106A) with A106Y
Procedure: Cells are co-transfected for 18 h with DMEM containing 0.08 micrograms/ml of an expression vector for the expression of the mutant receptor and 0.3 micrograms/ml pSI-Bgal (Promega, Madison Wis.), and 0.5% v/v Polyfect (Qiagen, Valencia Calif.), as recommended by the manufacturer. On day three, the medium is replaced with DMEM containing 1% PSG, 0.5% calf serum, 2% cyto-sf3 (Kemp Biotechnologies, Frederick, Md.), and varying concentrations of the compounds to be tested. Cells are grown in a humidified atmosphere with 5% ambient CO2 for 5 days. The media is removed from the plates, and beta-galactosidase activity is measured by the addition of o-nitrophenyl -d-galactopyranoside in phosphate-buffered saline with 5% Nonidet P-40. […] The following equation is fitted to the data using GraphPad Prism software (San Diego, Calif.):
NIH-3T3 cells were grown in 96-well tissue culture plates to 70 to 80% confluence in Dulbecco's modified essential media (DMEM) supplemented with 100 units/ml penicillin, 100 micrograms/ml streptomycin, 0.3 mg/ml L-glutamine (1% PSG, GIBCO) and 10% calf serum (Sigma-Aldrich). Cells were transfected for 18 h with DMEM containing 0.08 micrograms/ml receptor DNA and 0.3 micrograms/ml pSI-Bgal (Promega, Madison Wis.), 0.5% v/v Polyfect (Qiagen, Valencia Calif.). Medium was replaced with DMEM containing 1% PSG, 0.5% calf serum, 2% cyto-sf3 (Kemp Biotechnologies, Frederick, Md.), and varying concentrations of ligand. […] Cells were grown in a humidified atmosphere with 5% ambient CO2 for 5 days. Medium was removed from the plates, and beta-galactosidase activity was measured by the addition of o-nitrophenyl -d-galactopyranoside in phosphate-buffered saline with 5% Nonidet P-40.
Receptor Selection and Amplification (R-SAT™) Assays: R-SAT™ functional assays were carried out as follows. NIH-3T3 cells were grown in 96-well tissue culture plates to 70 to 80% confluence in Dulbecco's modified essential media (DMEM) supplemented with 100 units/ml penicillin, 100 micrograms/ml streptomycin, 0.3 mg/ml L-glutamine (1% PSG, GIBCO) and 10% calf serum (Sigma-Aldrich). Cells were transfected for 18 h with DMEM containing 0.08 micrograms/ml receptor DNA and 0.3 micrograms/ml pSI-Bgal (Promega, Madison Wis.), 0.5% v/v Polyfect (Qiagen, Valencia Calif.). The transfected cells were frozen away. Cells were thawed and added to 96 well plates with DMEM containing 1% PSG, 0.5% calf serum, 2% cyto-sf3 (Kemp Biotechnologies, Frederick, Md.), and varying concentrations of ligand.
In an effort to further characterize monoamine modulators, we used a panel of mutant muscarininc M1 receptors to analyze the activity and potency of orthosteric modulators and various allosteric modulators at those receptors.

rat M1 Y106A receptor [3] = target: T1, rat M1 Y106A receptor; assay: Phosphatidyl inositol hydrolysis assay, Y106A; type: cell-based; conditions: Table 6; for Shift: EC50 Y106A divided by EC50 wild-type; for EC50 / Eff (%): PI hydrolysis, Y106A; for Eff (%): relative to wild-type response to that ligand (clozapine: title says fold-response)
[4] = Table 2, maximum response relative to maximum response of carbachol
[5] = Table 3, M1 WT, maximum response, normalized
[6] = Table 4, M1 wild type, maximum response relative to xanomeline
[7] = Table 10, M1 Wild-Type, NA = non-active
[8] = Table 10, M1 Wild-Type, maximum response relative to carbachol

Structure (SMILES) | IC50 (rat M1 Y106A receptor [1]) [µM] | Shift (rat M1 Y106A receptor [1]) | Eff (%) [2, 4] [%] | EC50 ([2]; Table 2, mean +/- S.E.M., n=5) [µM] | Shift ([2]; Table 3) | Eff (%) [2, 5] [%] | EC50 ([2]; Table 3, M1 WT) [µM] | % Eff [2, 6] [%] | EC50 [2, 7] [µM] | % Eff [2, 8] [%] | EC50 ([2]; Table 4, M1 wild type) [µM] | Shift (rat M1 Y106A receptor [3]) | EC50 (rat M1 Y106A receptor [3]) [µM] | Eff (%) (rat M1 Y106A receptor [3])
CCCCC1CCN(CCCC(=O)c2ccccc2C)CC1 [AC-42, 4-n-butyl-1-[4-(2-methylphenyl)-4-oxo-1-butyl] piperidine hydrogen chloride] | 5.01 | 1 | 48 ± 11 | 0.158 | 1 | 47 ± 5 | 0.158 | 24 | 0.2 | 56 |  |  |  | 
CCCCC1CCN(CCCN2C(=O)COc3cc(F)ccc32)CC1 [AC-260584, 4-[3-(4-Butyl-piperidin-1-yl)-propyl]-7-fluoro-4H-benzo [1,4]oxazin-3-one] | 3.16 | 3 | 89 ± 11 | 0.0158 | 1 | 89 ± 6 | 0.0158 | 59 | 0.0251 | 109 | 0.0251 | 4 | 0.251 | 110 ± 22
Clc1ccc2c(c1)N=C(N1CCNCC1)c1ccccc1N2 [NDMC, 8-chloro-11-(1-piperazinyl)-5H-dibenzo [b,e] [1,4] diazepine] | 0.0501 | 0.3 | 79 ± 14 | 0.0501 | 1 | 78 ± 4 | 0.0501 | 43 | 0.1 | 93 | 0.0316 | 3 | 0.2 | 40 ± 4
